Patent US9969755B2, “Photodynamic therapy photosensitizers” (The Royal Institution for the Advancement of …, priority 2016, dated 2018)
“And” between values parts separate entries of the source, which are not always exact repeats. Identical values can stand only once.

What was measured:
Type in all cases: physicochemical
[1] = Absorption and steady-state fluorescence, fluorescence quantum yield in acetonitrile; conditions: for abs λmax / em λmax / Φf (fluorescence quantum yield) / ε (extinction coefficient): acetonitrile, room temperature; for drop in φf following inclusion of I or Br atoms: relative to unsubstituted analogue (1 for 3 and 4; 2 for 5 and 6)
Protocol: Absorption spectra were recorded using a Hitachi U-2800 UV-vis-NIR spectrophotometer. Luminescence spectra were recorded using a PTI QuantaMaster spectrofluorimeter using 10×10 mm quartz cuvettes and corrected for detector sensitivity.
The steady-state fluorescence spectra were recorded between 500-800 nm (depending on each compound) upon exciting at the wavelength of the absorbance maxima. The excitation and emission slits were tuned according to the fluorescence quantum yield of each BODIPY (i.e. for compound 7 excitation slits were 5 nm and for compound 4 we used 2 nm). Fluorescence was recorded every 1 nm using 0.1 s integration time. For the Fluorescence lifetime measurements, the excitation rate was 10 MHz, and the detection frequency was less than 100 kHz. Photons were collected at the magic angle. The fluorescence decay traces were fit using FluoFit (Picoquant) software. For steady-state and time-resolved fluorescence measurements a quartz cuvette with a 10 mm path length was used and all the solutions were prepared in air equilibrated acetonitrile.
Quantum yields of fluorescence were measured using PM605 in acetonitrile as a reference. Absorption and emission spectra of PM605 and the dye of interest were measured in acetonitrile at five different concentrations. The integrated intensity versus absorbance were then plotted and fitted linearly. Relative quantum yields of fluorescence for the unknown with respect to the standard were obtained from equation 1, where φ, Δ, and n refer, respectively, to the quantum yield, the slope obtained from the above-mentioned plot, and the solvent refractive index for the unknown (x) or standard (st).

[2] = Time-resolved fluorescence (fluorescence lifetime, TCSPC); conditions: for increase in kdec upon halogen substitution: 4 vs 1, 6 vs 2, 3 vs 1, 5 vs 2; for kdec (fluorescence decay rate constant) / knr (non-radiative decay rate constant, (1−φf)×kdec) / krad (radiative rate constant, φf×kdec): acetonitrile, room temperature
Protocol: Fluorescence lifetime measurements were carried out using a Picoquant Fluotime 200 time correlated single photon counting (TCSPC) setup employing an LDH-P-C-470 picosecond diode laser (Picoquant) with an excitation wavelength at 466 nm as the excitation source. The laser was controlled by a PDL 800 B picosecond laser driver from Picoquant. ^1HNMR spectra were recorded on a Bruker AV 400 instrument at 400 MHz. ^13CNMR spectra were recorder on a Varian VNMRS 500 instrument at 125 MHz. ESI mass spectra were measured on a Bruker maXis impact. Laser Flash Photolysis (LFP) experiments were carried out in a commercially available Luzchem 212 LFP setup provided with a Tektronix TDS 2000 digitizer for signal capture. A Nd:Yag laser (Continuum model Surelite I-10 using a second harmonic generators, model number SL-SHG-T1) was used for excitation at a wavelength of 532 nm. Phosphorescence experiments were recorded using a Cary Eclipse Fluorescence Spectrophotometer. Singlet Oxygen phosphorescence was recorded with a Hamamatsu NIR detector (peltier cooled at −62.8° C. operating at 800 V, coupled to a grating monochromator) upon excitation with a 532 nm Nd:YAG laser. A customized Luzchem Research LFP-111 system was employed to collect and process the data. The steady-state fluorescence spectra were recorded between 500-800 nm (depending on each compound) upon exciting at the wavelength of the absorbance maxima. The excitation and emission slits were tuned according to the fluorescence quantum yield of each BODIPY (i.e. for compound 7 excitation slits were 5 nm and for compound 4 we used 2 nm). Fluorescence was recorded every 1 nm using 0.1 s integration time. For the Fluorescence lifetime measurements, the excitation rate was 10 MHz, and the detection frequency was less than 100 kHz. Photons were collected at the magic angle. The fluorescence decay traces were fit using FluoFit (Picoquant) software. For steady-state and time-resolved fluorescence measurements a quartz cuvette with a 10 mm path length was used and all the solutions were prepared in air equilibrated acetonitrile.

[3] = Laser flash photolysis: triplet excited state decay and quenching; conditions: for kq (triplet quenching rate constant) Q = PMHC: Ar saturated acetonitrile; for Triplet decay rate constant kT: T-T absorption at 430 nm or 550 nm, argon saturated solutions; for kT (triplet decay rate constant) Air equilibrated / kT (triplet decay rate constant) Argon Purged / kq (triplet quenching rate constant) Q = ^3O2: acetonitrile; for kq (triplet quenching rate constant) Q = ^3O2: calculated with oxygen solubility 2.42 mM
Protocol: The 500 mJ/pulse laser output was attenuated yielding 10 mJ laser pulses of 6 ns in duration. Samples were prepared in acetonitrile. The final absorbance of the BODIPY dyes was 0.1. The concentration was kept low to avoid triplet-triplet annihilation. Each sample was de-oxygenated by purging with argon gas for at least 30 min. Quartz cells containing 10×10 mm path length were used. The decay of the BODIPYs was monitored between 420-440 and 520-550 nm (depending the BODIPY) following the laser excitation. Samples were irradiated with a total of 6 laser shots to acquire the temporal evolution of ΔOD.
A second layer of control was subsequently tested via LFP studies, to monitor the extent to which the trap segment deactivates the triplet excited state of the photosensitizes. […] The two quenchers emulate the trap segments utilized in 7 and 8, respectively.

[4] = ^1O2 quantum yield and lifetime, ^1O2 phosphorescence at 1270 nm (direct method); conditions: for ΦΔ^D (singlet oxygen quantum yield, direct): ^1O2 phosphorescence at 1270 nm, air equilibrated acetonitrile
Protocol: The generation of singlet oxygen and its lifetime were determined from ^1O2 phosphorescence decay curves recorded at 1270 nm upon excitation with a 532 nm Nd:YAG laser. A total of 3 laser shots were applied to acquire a trace. […] Quantum yield of ^1O2 production (φΔ^D) were calculated comparing the intensity of ^1O2 phosphorescence at 1270 nm for the corresponding photosensitizer with that recorded for Rose Bengal (φΔ=0.54).^81

[5] = Electrochemical studies (cyclic voltammetry); design: E^oB^+·/B (reversible oxidation potential): unit not given here; conditions: vs ferrocene, acetonitrile
Protocol: Electrochemical measurements were performed using a three-electrode system. The working electrode was a Pt wire, a Pt mesh wire was used as the counter electrode, and a Ag/AgCl electrode was used as the reference. A 0.1 M solution of tetrabutylammonium hexafluorophosphate in dry acetonitrile was used as the electrolyte solvent in which the compounds were dissolved to 1 mM or to saturation when the latter occurred before reaching a 1 mM concentration. Concentration was determined from their absorption and calculated extinction coefficient. Solutions also contained ferrocene with a concentration of 1 mM as an internal standard. The solutions were equilibrated with argon, and all measurements were conducted under inert atmosphere, with a minimum scan rate of 0.2 V s^−1. When the acquired cyclic voltammograms were not reversible the scan rate was increased up to 1 V s^−1. Formal redox potentials were calculated from the midpoint of the cathodic and anodic peak potentials observed in the cyclic voltammograms. All values were reported vs ferrocene, with the oxidation of ferrocene measured and corrected to zero for all experiments.

[6] = Phosphorescence studies at 77 K; design: unit not given beside the values; conditions: from phosphorescence emission spectra, 4:1 EtOH:MeOH
Protocol: Phosphorescence from compounds 3-6 was observed cooling a 4:1 EtOH:MeOH solution to 77 K with liquid nitrogen. Dilute sample solutions (Abs<0.1) were prepared in NMR tubes and suspended in a coldfinger Dewar (custom-made by Ace Glass) filled with liquid nitrogen.

SMILES | E00 (HOMO-LUMO gap from intercept of normalized absorption and emission spectra) [1] [eV] | abs λmax [1] [nm] | em λmax [1] [nm] | Φf (fluorescence quantum yield) [1] | ε (extinction coefficient) [1] [M⁻¹ cm⁻¹] | drop in φf following inclusion of I or Br atoms [1] | increase in kdec upon halogen substitution [2] | kdec (fluorescence decay rate constant) [2] | knr (non-radiative decay rate constant, (1−φf)×kdec) [2] | krad (radiative rate constant, φf×kdec) [2] | kq (triplet quenching rate constant) Q = PMHC [3] | Triplet decay rate constant kT [3] [s⁻¹] | kT (triplet decay rate constant) Air equilibrated [3] | kT (triplet decay rate constant) Argon Purged [3] | kq (triplet quenching rate constant) Q = ^3O2 [3] | ΦΔ^D (singlet oxygen quantum yield, direct) [4] | E^oB^+·/B (reversible oxidation potential) [5] | E (Triplet), energy of the lowest triplet state [6] | E^opc (cathodic peak potential) [5] | other results
CC1=C(I)C(C)=[N+]2C1=C(C)c1c(C)c(I)c(C)n1[B-]2(F)F [Compound 3, 2,6-diiodo-1,3,5,7,8-pentamethyl-pyrromethene fluoroborate] | 2.33 | 521 | 545 | 0.03 ± 0.01 | 83000 | 27 fold | ca. 27 fold | 476.2 ± 0.7 × 10^7 s^−1 | 463.0 ± 0.7 × 10^7 s^−1 | 13.1 ± 0.2 × 10^7 s^−1 | 1.20 ± 0.05 × 10^8 M^−1s^−1 | 17000 | 4.35 ± 0.02 × 10^6 s^−1 | 1.68 ± 0.02 × 10^4 s^−1 | 1.82 ± 0.03 × 10^9 M^−1s^−1 | 0.81 and 0.81 ± 0.02 | 0.88 | 1.70 | – | photodegradation ([4]; under 532 nm irradiation, presumably via photooxidation): photodegrade at a slightly larger pace than 5
CC1=C(Br)C(C)=[N+]2C1=C(C)c1c(C)c(Br)c(C)n1[B-]2(F)F [Compound 4, 2,6-dibromo-1,3,5,7,8-pentamethyl-pyrromethene fluoroborate] | 2.37 | 515 | 535 | 0.20 and 0.20 ± 0.02 | 79000 | ~4 fold | 3.1 fold | 55.3 ± 0.2 × 10^7 s^−1 | 44.2 ± 0.2 × 10^7 s^−1 | 11.0 ± 0.2 × 10^7 s^−1 | 1.29 ± 0.04 × 10^8 M^−1s^−1 | 27000 | 4.55 ± 0.03 × 10^6 s^−1 | 2.70 ± 0.02 × 10^4 s^−1 | 1.91 ± 0.02 × 10^9 M^−1s^−1 | 0.72 ± 0.02 | 0.89 | 1.71 | – | –
CC(=O)OCC1=C2C(C)=C(I)C(C)=[N+]2[B-](F)(F)n2c(C)c(I)c(C)c21 [Compound 5, 8-Acetoxymethyl-2,6-diiodo-1,3,5,7-tetramethyl Pyrromethene Fluoroborate] | 2.21 | 550 | 572 | 0.02 ± 0.01 | 96000 | ca. 44 fold | ~42 fold | 625.0 ± 0.7 × 10^7 s^−1 | 582.0 ± 0.7 × 10^7 s^−1 | 12.5 ± 0.2 × 10^7 s^−1 | 3.95 ± 0.07 × 10^8 M^−1s^−1 | 17000 | 7.14 ± 0.04 × 10^6 s^−1 | 1.64 ± 0.02 × 10^4 s^−1 | 3.01 ± 0.01 × 10^9 M^−1s^−1 | 0.98 and 0.98 ± 0.03 | 0.91 | 1.54 | −1.14 | –
CC(=O)OCC1=C2C(C)=C(Br)C(C)=[N+]2[B-](F)(F)n2c(C)c(Br)c(C)c21 [Compound 6, 8-Acetoxymethyl-2,6-dibromo-1,3,5,7-tetramethyl Pyrromethene Fluoroborate] | 2.25 | 543 | 562 | 0.14 ± 0.02 | 81000 | ~6 fold | 4.5 fold | 66.7 ± 0.3 × 10^7 s^−1 | 57.4 ± 0.2 × 10^7 s^−1 | 9.3 ± 0.1 × 10^7 s^−1 | 2.23 ± 0.05 × 10^8 M^−1s^−1 | 27000 | 6.67 ± 0.04 × 10^6 s^−1 | 2.72 ± 0.03 × 10^4 s^−1 | 2.80 ± 0.02 × 10^9 M^−1s^−1 | 0.84 ± 0.02 | 0.94 | 1.53 | −1.13 | –
CC1=C(Br)C(C)=[N+]2C1=C(CC1(C)CCc3c(C)c(O)c(C)c(C)c3O1)c1c(C)c(Br)c(C)n1[B-]2(F)F (stereo not shown) [Compound 7, 8-((6-Hydroxy-2,5,7,8-tetramethylchroman-2-yl)-methyl)-2,6-dibromo-1,3,5,7-tetramethyl] | – | 532 | 557.4 | – | 56000 | – | – | – | – | – | – | – | – | – | – | – | – | – | – | drop in φf caused by the trap segment ([1]; 7 compared to reference 4, 8 compared to 5): ca. 25 fold; intramolecular electron transfer rate constant from the singlet state (keT) ([1]; based on φf≤0.008): ≥ 1e+10 s⁻¹; triplet-triplet absorption ([3]; in contrast to precursor 4): unable to detect any triplet-triplet absorption; ^1O2 generation ([4]; freshly prepared solutions): no ^1O2 generation
